Consider one compound from article PMC6990966, “Treatment of Porphyromonas gulae infection and downstream pathology in the aged dog by lysine‐gingipain inhibitor COR388” (Pharmacology Research & Perspectives, 2020).

Data set [1] is described as follows: Plasma pharmacokinetics after single intravenous dose. Particulars: both sexes, Beagle, dog, single intravenous dose 1 mg kg^−1 in PBS, mean ± SD. Format: in vivo, Beagle dogs.
Data set [2] is described as follows: Plasma pharmacokinetics after oral administration in gelatin capsules. The class given is in vivo, Beagle dogs. Particulars: Beagle, dog; for bioavailability: po, 0.5 mg/kg. The procedure: Aged Beagle dogs of both sexes ranging from 8 to 15 years of age, in generally good health and located in the Vivocore Inc dog colony, were utilized in this study. All procedures were reviewed and approved by Vivocore's Institutional Animal Care and Use Committee (IACUC) and were performed in accordance with the principles of the Animal for Research Act of Ontario and the guidelines of Canadian Council on Animal Care (CCAC). […] The detailed chemical synthesis and structure of compounds in the relevant series of lysine-gingipain inhibitors including COR388 can be found in PCT/2016/0061197. Detailed characterization of COR388 enzyme target binding, potency, and selectivity are previously described.1 Test article administered, COR388 HCl, was a solid powdered material. Dogs were dosed with neat compound hand-filled in gelatin capsules (size 1, Torpac) orally at the listed doses (free-base, corrected for salt form). All dogs utilized in studies were positive on previous BANA enzyme (BANAMet LLC, Ann Arbor, MI) testing of oral plaque samples (assay described below). In the first study, four dogs were dosed 10 mg kg^-1 q.d. with endpoints assessed after dosing and compared to those taken pre-dose in individual dogs. The second dose-response study was conducted with a randomized, blinded, matched-group design with 12 dogs. […] Groups were balanced for age, sex, weight, and baseline BANA test results to the extent possible. Dogs were group housed according to dosing group in compliance with the recommendations of the CACC. Dogs were fed a standard commercial dry diet daily in the evenings with water provided ad libitum but not within 30 minutes of the start of anesthetic procedures. For evaluation of pharmacokinetics parameters, approximately 2 mL of blood was collected at the indicated time points following test article administration into K2EDTA tubes and plasma was isolated for bioanalytical determination of plasma concentrations of COR388. A single intravenous dose of COR388 was administered in PBS at a dose of 1 mg kg^-1. Quantitation of COR388 in plasma samples following protein precipitation with mianserin added as an internal standard, was performed from the time points shown using a qualified LC-MS/MS method (AB Sciex 4000 QTrap). Plasma concentration versus time profiles were analyzed to determine pharmacokinetic parameters using noncompartmental methods (Phoenix® WinNonlin® 6.3, Pharsight Certara).

Another data set deals with P. gulae. In words: qPCR detection of P. gulae load in oral samples of naturally infected aged dogs. The class given is in vivo, Beagle dogs. The procedure: (§1) Aged Beagle dogs of both sexes ranging from 8 to 15 years of age, in generally good health and located in the Vivocore Inc dog colony, were utilized in this study. All procedures were reviewed and approved by Vivocore's Institutional Animal Care and Use Committee (IACUC) and were performed in accordance with the principles of the Animal for Research Act of Ontario and the guidelines of Canadian Council on Animal Care (CCAC). Structure‐based design was used to develop a library of gingipain inhibitors, which were tested on purified Kgp and RgpB to assess potency and determine inhibition constants. […] In the first study, four dogs were dosed 10 mg kg^−1 q.d. with endpoints assessed after dosing and compared to those taken pre‐dose in individual dogs. […]
Biofluids were evaluated for P. gulae load using a qPCR assay that was developed to specifically detect P. gulae 16S gene with the following primers and probe: Forward primer […], Reverse primer […], and probe […]. […] Saliva was evaluated with either 2 μL neat saliva or purified DNA from 2 μL saliva. Buccal cells were evaluated with either 2 μL neat buccal cell slurry or purified DNA from 2 μL buccal cell slurry. SGP was evaluated with 2 μL from the elution in B‐Per. GCF was evaluated with either purified DNA from 50 μL of B‐Per eluted GCF or neat 2 μL elution.

For the next data set, the system named is Kgp. Description: Kgp activity in GCF of dosed dogs using COR553 activity-based probe. The class given is in vivo, Beagle dogs. The procedure: (§2) Aged Beagle dogs of both sexes ranging from 8 to 15 years of age, in generally good health and located in the Vivocore Inc dog colony, were utilized in this study. All procedures were reviewed and approved by Vivocore's Institutional Animal Care and Use Committee (IACUC) and were performed in accordance with the principles of the Animal for Research Act of Ontario and the guidelines of Canadian Council on Animal Care (CCAC). Structure‐based design was used to develop a library of gingipain inhibitors, which were tested on purified Kgp and RgpB to assess potency and determine inhibition constants. The detailed chemical synthesis and structure of compounds in the relevant series of lysine‐gingipain inhibitors including COR388 can be found in PCT/2016/0061197. Detailed characterization of COR388 enzyme target binding, potency, and selectivity are previously described.1 Test article administered, COR388 HCl, was a solid powdered material. Dogs were dosed with neat compound hand‐filled in gelatin capsules (size 1, Torpac) orally at the listed doses (free‐base, corrected for salt form). All dogs utilized in studies were positive on previous BANA enzyme (BANAMet LLC, Ann Arbor, MI) testing of oral plaque samples (assay described below). In the first study, four dogs were dosed 10 mg kg^−1 q.d. with endpoints assessed after dosing and compared to those taken pre‐dose in individual dogs. The second dose‐response study was conducted with a randomized, blinded, matched‐group design with 12 dogs. Following baseline sample collections prior to dosing, animals were allocated to four dosing groups, n = 3 dogs per group as follows: vehicle (empty capsule), 0.15, 0.5, and 1.5 mg kg^−1 b.i.d (Q12h). Dosing continued for 28 days (0.15 and 1.5 mg kg^−1) or 90 days (vehicle and 0.5 mg kg^−1). Groups were balanced for age, sex, weight, and baseline BANA test results to the extent possible. Dogs were group housed according to dosing group in compliance with the recommendations of the CACC. Dogs were fed a standard commercial dry diet daily in the evenings with water provided ad libitum but not within 30 minutes of the start of anesthetic procedures.
Gingival Crevicular Fluid: GCF was collected from the gingival pockets at times following dosing ±30 minutes, as indicated. Eight sampling sites were identified per dog and four sites were used per timepoint. Sampling sites were isolated with a cotton roll and air‐dried. Gingival fluid collection strips (Periopaper™, Oraflow) were gently held with tweezers and placed into the pocket until resistance was felt. Strips were held in place for 30 seconds and then processed as described above for SGP isolation. […]

The next data set relates to RgpB. Description: Rgp enzyme activity assay in SGP of dosed dogs. Particulars: oral 10 mg kg^−1 q.d. for 28 days. Format: in vivo, Beagle dogs. Here is the method: as §1, with “constants. The detailed chemical synthesis and structure of compounds in the relevant series of lysine‐gingipain inhibitors including COR388 can be found in PCT/2016/0061197.” for “constants.”
For the detection of arginine‐gingipain (Rgp) activity, cysteine‐HCl was freshly added to RgpB buffer (100 mmol L^−1 Tris, 200 mmol L^−1 gly‐gly, 5 mmol L^−1 CaCl2) to a final concentration of 10 mmol L^−1 to produce a RgpB working enzyme assay buffer. […] After 50 μL of substrate solution was added, the plate was immediately read at 405 nm for 1 hour with interval of every 1.5 minutes read at 37°C and continuous shaking in Biotek Synergy 2 microplate reader. […]

Data set [3] has as its system periodontal disease (pocket depth). In words: Dental assessment of gingival pocket depth. Format: in vivo, Beagle dogs. Particulars: oral 0.5 mg kg^−1 b.i.d., day 90 vs baseline. The procedure: as §2, with “The second dose‐response study was conducted with a randomized, blinded, matched‐group design with 12 dogs. Following baseline sample collections prior to dosing, animals were allocated to four dosing groups, n = 3 dogs per group as follows: vehicle (empty capsule), 0.15, 0.5, and 1.5 mg kg^−1 b.i.d (Q12h). Dosing continued for 28 days (0.15 and 1.5 mg kg^−1) or 90 days (vehicle and 0.5 mg kg^−1). Groups were balanced for age, sex, weight, and baseline BANA test results to the extent possible. Dogs were group housed according to dosing group in compliance with the recommendations of the CACC. Dogs were fed a standard commercial dry diet daily in the evenings with water provided ad libitum but not within 30 minutes of the start of anesthetic procedures.” left out

On the set-up of data set [4]: method as in PMID 30746447. Particulars: mice; cited from earlier work.
The next data set relates to P. gingivalis cultures. Particulars: P. gingivalis cultures in vitro; cited from earlier work.

Where two headings read alike, the source gives them in different places.

As to `NCCCC[C@H](NC(=O)C1CCCC1)C(=O)COc1c(F)ccc(F)c1F` [COR388], the half-life in data set [1] (read-out: elimination half-life (converted)) was 3.5 ± 0.6 h; in data set [2] (both sexes, 0.5 mg kg^-1 oral, single oral dose (Figure 2C), mean ± SD, read-out: Apparent t1/2 (converted)), 2.42 ± 0.236 h. Moreover, the clearance – broadly, the rate of elimination divided by the concentration – in data set [1] (read-out: systemic clearance (CLS) (converted)) is 35 mL/min/kg. Moreover, the Vd in data set [1] (read-out: volume distribution (Vss)) worked out at 5.2 ± 1.3 L/kg. Moreover, the Cmax (commonly the maximum level reached in the sampled fluid or tissue) in data set [2] (oral 0.15 mg kg^−1 b.i.d. group, single dog with minimal Kgp inhibition, read-out: plasma Cmax of the one dog with lowest exposure) turned out to be 2.73 ng/mL; in data set [2] (both sexes, oral 0.15 mg kg^−1 b.i.d. group, read-out: mean Cmax in dose group) it was 9.74 ng/mL; in data set [2] (both sexes, oral 0.5 mg kg^−1 administered b.i.d. for 6 days, read-out: Cmax) it was 66.6 ng/mL. Also, the Tmax (usually the time from dosing to the highest level) in data set [2] (both sexes, 0.5 mg kg^-1 oral, single oral dose (Figure 2C), mean ± SD) is 2.17 ± 1.76 h. Also, in data set [2] (both sexes, 12 hours after oral dosing of 0.5 mg kg^−1, read-out: mean trough plasma concentration (Cmin)), the concentration at 12 h came out at 2.67 ng/mL. Further, the AUC(0-t) in data set [2] (both sexes, oral 0.5 mg kg^−1 administered b.i.d. for 6 days, read-out: AUC0-12 h) is 265 ng·h/mL. Further, the bioavailability in data set [2] (both sexes, 0.5 mg kg^-1 oral, single oral dose (Figure 2C), mean ± SD, read-out: F) came to 105 ± 28.8%; in data set [2] (both sexes, oral doses of 0.5 mg kg^−1 and higher, read-out: bioavailability (%F)), 100%. Further, the “mean decrease in baseline P. gulae DNA” value in the data set with P. gulae (buccal cells, oral 10 mg kg^−1 once a day, after 14 days of dosing) was over 80%. In the data set on P. gulae (oral 0.5 mg kg^−1 b.i.d. for 90 days, buccal cells (Figure 5A)), the “P. gulae bacterial load over time compared to vehicle control” value is reported as “statistically significant reduction”. Besides, the “inhibition of baseline Kgp activity” value is “roughly 50%” with Kgp (oral 0.5 mg kg^−1, after a single dose) and “near complete inhibition” in the data set on Kgp (oral 0.5 mg kg^−1 b.i.d., after 28 days of dosing). In the data set on Kgp (oral 0.5 mg kg^−1 b.i.d. for 90 days), the “Kgp activity compared to vehicle control” value is “statistically significant reduction”. In the data set with Kgp (oral 10 mg kg^−1 q.d., 2 hours after dosing on days 14 and 28), the “active Kgp available for COR553 probe binding” value was “no active sites were available for probe binding”. The “active RgpB in SGP versus baseline day 1” value in the data set on RgpB is on record as “reduction”. For the same compound, the “mean average pocket depth, all individual pockets” value in data set [3] (P = .0156) is recorded as “reduction”. Further, the “mean average pocket depth, pockets ≥3 mm at baseline or end of study, per dog” value in data set [3] (P = .0332) was “significant reduction”. Besides, in data set [4], the brain penetration result is given as “brain penetrant”. Besides, the “drug resistance on chronic administration” value in the data set on P. gingivalis cultures is “did not lead to drug resistance”.
